Measured values: patent US7851474B2, “Dipiperazinyl ketones and related analogues” (Neurogen Corporation, priority 2005, dated 2010)

These molecules were tested against T1, chimeric human H3 receptor (Homo sapiens, UniProt Q9Y5N1, E19D) (assay: Chimeric human H3 receptor GTP binding assay (agonist-stimulated GTP-gamma35S binding, Example 7)). Conditions: Table II; assay of Example 7; "*" in Ki; read-out: Ki.
T1 construct: made in house; host or cells: Sf9 insect cells (baculovirus infection); P2 membrane preparation
T1 sequence (Q9Y5N1 with tags, fused parts or gaps E19D): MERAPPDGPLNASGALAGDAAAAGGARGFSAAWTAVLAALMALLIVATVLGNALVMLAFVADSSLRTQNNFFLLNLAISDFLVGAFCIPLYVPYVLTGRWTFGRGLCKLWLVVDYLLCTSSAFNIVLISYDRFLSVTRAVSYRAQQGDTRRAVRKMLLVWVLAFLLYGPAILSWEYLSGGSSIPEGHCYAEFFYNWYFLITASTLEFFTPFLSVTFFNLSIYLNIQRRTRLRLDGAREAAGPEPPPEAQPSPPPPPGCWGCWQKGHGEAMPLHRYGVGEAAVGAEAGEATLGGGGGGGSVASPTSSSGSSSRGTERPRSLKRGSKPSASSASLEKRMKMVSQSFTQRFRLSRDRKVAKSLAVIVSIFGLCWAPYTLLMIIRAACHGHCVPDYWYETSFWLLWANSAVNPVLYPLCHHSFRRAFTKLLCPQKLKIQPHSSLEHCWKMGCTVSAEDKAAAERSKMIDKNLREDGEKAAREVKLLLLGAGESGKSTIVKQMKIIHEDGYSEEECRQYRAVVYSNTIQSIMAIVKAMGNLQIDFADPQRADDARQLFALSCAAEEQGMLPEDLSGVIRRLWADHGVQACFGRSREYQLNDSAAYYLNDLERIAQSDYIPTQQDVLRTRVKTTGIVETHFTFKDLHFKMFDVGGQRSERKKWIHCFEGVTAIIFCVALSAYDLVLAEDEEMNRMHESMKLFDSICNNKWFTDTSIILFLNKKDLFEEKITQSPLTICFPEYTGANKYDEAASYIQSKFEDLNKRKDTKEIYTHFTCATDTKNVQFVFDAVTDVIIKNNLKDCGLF
Format: biochemical
How it was run: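 IC50 values come from non-linear regression of dose-response curves of filter-bound GTP-gamma^35S, counted by scintillation. Membranes were from infected Sf9 cells carrying receptor plus G-protein subunits, 35 μg/tube, with 10 μM GDP present.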
With O=C(CN1CCN(c2ccc(-c3cccc(C(F)(F)F)c3)nn2)CC1)N1CCN(C2CCC2)CC1 [Compound 1063, 3-{4-[2-(4-cyclobutylpiperazin-1-yl)-2-oxoethyl]piperazin-1-yl}-6-[3-(trifluoromethyl)phenyl] pyridazine] the Ki was under 1 µM.
Work on CC1CCCN1C(=O)c1ccc(N2CCN(CC(=O)N3CCN(C4CCC4)CC3)CC2)nn1 (stereo not shown) [Compound 1064, 3-{4-[2-(4-cyclobutylpiperazin-1-yl)-2-oxoethyl]piperazin-1-yl}-6-[(2-methylpyrrolidin-1-yl)carbonyl]pyridazine] yielded a Ki of under 1 µM.
With N#Cc1ccc(-c2cccc(N3CCN(CC(=O)N4CCN(C5CCC5)CC4)CC3)c2)cc1 [Compound 1065, 3′-{4-[2-(4-cyclobutylpiperazin-1-yl)-2-oxoethyl]piperazin-1-yl}biphenyl-4-carbonitrile] the Ki was under 1 µM.
CCN(C(=O)c1cccc(N2CCN(CC(=O)N3CCN(C4CCC4)CC3)CC2)c1)C(C)C [Compound 1066, 3-{4-[2-(4-cyclobutylpiperazin-1-yl)-2-oxoethyl]piperazin-1-yl}-N-ethyl-N-isopropylbenzamide] was tested, and the Ki was under 1 µM.
With CC(C)N(C)C(=O)c1cccc(N2CCN(CC(=O)N3CCN(C4CCC4)CC3)CC2)c1 [Compound 1067, 3-{4-[2-(4-cyclobutylpiperazin-1-yl)-2-oxoethyl]piperazin-1-yl}-N-isopropyl-N-methylbenzamide] the Ki was under 1 µM.
CN(C(=O)c1cccc(N2CCN(CC(=O)N3CCN(C4CCC4)CC3)CC2)c1)C1CCCCC1 [Compound 1068, 3-{4-[2-(4-cyclobutylpiperazin-1-yl)-2-oxoethyl]piperazin-1-yl}-N-cyclohexyl-N-methylbenzamide] showed a Ki of under 1 µM.
CCN(C(=O)c1cccc(N2CCN(CC(=O)N3CCN(C4CCC4)CC3)CC2)c1)C1CCCCC1 [Compound 1069, 3-{4-[2-(4-cyclobutylpiperazin-1-yl)-2-oxoethyl]piperazin-1-yl}-N-cyclohexyl-N-ethylbenzamide] showed a Ki of under 1 µM.
For COCCN(C(=O)c1cccc(N2CCN(CC(=O)N3CCN(C4CCC4)CC3)CC2)c1)C(C)C [Compound 1070, 3-{4-[2-(4-cyclobutylpiperazin-1-yl)-2-oxoethyl]piperazin-1-yl}-N-isopropyl-N-(2-methoxyethyl)benzamide], the Ki was under 1 µM.
With CCC(C)CNC(=O)c1cccc(N2CCN(CC(=O)N3CCN(C4CCC4)CC3)CC2)c1 (stereo not shown) [Compound 1071, 3-{4-[2-(4-cyclobutylpiperazin-1-yl)-2-oxoethyl]piperazin-1-yl}-N-(2-methylbutyl)benzamide] the Ki was under 1 µM.
With CCCNC(=O)c1cccc(N2CCN(CC(=O)N3CCN(C4CCC4)CC3)CC2)c1 [Compound 1072, 3-{4-[2-(4-cyclobutylpiperazin-1-yl)-2-oxoethyl]piperazin-1-yl}-N-propylbenzamide] the Ki was under 1 µM.
O=C(NCC1CC1)c1cccc(N2CCN(CC(=O)N3CCN(C4CCC4)CC3)CC2)c1 [Compound 1073, 3-{4-[2-(4-cyclobutylpiperazin-1-yl)-2-oxoethyl]piperazin-1-yl}-N-(cyclopropylmethyl) benzamide] was tested, and the Ki was under 1 µM.
Work on CC(C)CNC(=O)c1cccc(N2CCN(CC(=O)N3CCN(C4CCC4)CC3)CC2)c1 [Compound 1074, 3-{4-[2-(4-cyclobutylpiperazin-1-yl)-2-oxoethyl]piperazin-1-yl}-N-isobutylbenzamide] yielded a Ki of under 1 µM.
With CCCCCNC(=O)c1cccc(N2CCN(CC(=O)N3CCN(C4CCC4)CC3)CC2)c1 [Compound 1075, 3-{4-[2-(4-cyclobutylpiperazin-1-yl)-2-oxoethyl]piperazin-1-yl}-N-pentylbenzamide] the Ki was under 1 µM.
CC(C)CCNC(=O)c1cccc(N2CCN(CC(=O)N3CCN(C4CCC4)CC3)CC2)c1 [Compound 1076, 3-{4-[2-(4-cyclobutylpiperazin-1-yl)-2-oxoethyl]piperazin-1-yl}-N-(3-methylbutyl)benzamide] was tested, and the Ki was under 1 µM.
In the case of O=C(NCC(F)(F)F)c1cccc(N2CCN(CC(=O)N3CCN(C4CCC4)CC3)CC2)c1 [Compound 1077, 3-{4-[2-(4-cyclobutylpiperazin-1-yl)-2-oxoethyl]piperazin-1-yl}-N-(2,2,2-trifluoroethyl)benzamide], the Ki is reported as under 1 µM.
Molecule O=C(NC1CC1)c1cccc(N2CCN(CC(=O)N3CCN(C4CCC4)CC3)CC2)c1 [Compound 1078, 3-{4-[2-(4-cyclobutylpiperazin-1-yl)-2-oxoethyl]piperazin-1-yl}-N-cyclopropylbenzamide] has a Ki of under 1 µM.
With O=C(NC1CCCCC1)c1cccc(N2CCN(CC(=O)N3CCN(C4CCC4)CC3)CC2)c1 [Compound 1079, 3-{4-[2-(4-cyclobutylpiperazin-1-yl)-2-oxoethyl]piperazin-1-yl}-N-cyclohexylbenzamide] the Ki was under 1 µM.
In the case of CC(C)NC(=O)c1cccc(N2CCN(CC(=O)N3CCN(C4CCC4)CC3)CC2)c1 [Compound 1080, 3-{4-[2-(4-cyclobutylpiperazin-1-yl)-2-oxoethyl]piperazin-1-yl}-N-isopropylbenzamide], the Ki is reported as under 1 µM.
Molecule O=C(NC1CCCC1)c1cccc(N2CCN(CC(=O)N3CCN(C4CCC4)CC3)CC2)c1 [Compound 1081, 3-{4-[2-(4-cyclobutylpiperazin-1-yl)-2-oxoethyl]piperazin-1-yl}-N-cyclopentylbenzamide] has a Ki of under 1 µM.
Work on CCCC(C)NC(=O)c1cccc(N2CCN(CC(=O)N3CCN(C4CCC4)CC3)CC2)c1 (stereo not shown) [Compound 1082, 3-{4-[2-(4-cyclobutylpiperazin-1-yl)-2-oxoethyl]piperazin-1-yl}-N-(1-methylbutyl)benzamide] yielded a Ki of under 1 µM.
In the case of O=C(NC1CCCCCC1)c1cccc(N2CCN(CC(=O)N3CCN(C4CCC4)CC3)CC2)c1 [Compound 1083, 3-{4-[2-(4-cyclobutylpiperazin-1-yl)-2-oxoethyl]piperazin-1-yl}-N-cycloheptylbenzamide], the Ki is reported as under 1 µM.
Molecule O=C(NCC1CCCCC1)c1cccc(N2CCN(CC(=O)N3CCN(C4CCC4)CC3)CC2)c1 [Compound 1084, 3-{4-[2-(4-cyclobutylpiperazin-1-yl)-2-oxoethyl]piperazin-1-yl}-N-(cyclohexylmethyl) benzamide] has a Ki of under 1 µM.
Molecule CC(C)(C)CNC(=O)c1cccc(N2CCN(CC(=O)N3CCN(C4CCC4)CC3)CC2)c1 [Compound 1085, 3-{4-[2-(4-cyclobutylpiperazin-1-yl)-2-oxoethyl]piperazin-1-yl}-N-(2,2-dimethylpropyl) benzamide] has a Ki of under 1 µM.
CCC(CC)CNC(=O)c1cccc(N2CCN(CC(=O)N3CCN(C4CCC4)CC3)CC2)c1 [Compound 1086, 3-{4-[2-(4-cyclobutylpiperazin-1-yl)-2-oxoethyl]piperazin-1-yl}-N-(2-ethylbutyl)benzamide] showed a Ki of under 1 µM.
O=C(CN1CCN(c2ccc(Cl)nn2)CC1)N1CCN(C2CCC2)CC1 [Compound 1087, 3-chloro-6-{4-[2-(4-cyclobutylpiperazin-1-yl)-2-oxoethyl]piperazin-1-yl}pyridazine] gave a Ki of under 1 µM.
Work on O=C(CN1CCN(c2cccc(C(=O)N3CCSCC3)c2)CC1)N1CCN(C2CCC2)CC1 [Compound 1091, 4-(3-{4-[2-(4-cyclobutylpiperazin-1-yl)-2-oxoethyl]piperazin-1-yl}benzoyl) thiomorpholine] yielded a Ki of under 1 µM.
Molecule CC1CN(C(=O)c2cccc(N3CCN(CC(=O)N4CCN(C5CCC5)CC4)CC3)c2)CC(C)O1 (stereo not shown) [Compound 1092, 4-(3-{4-[2-(4-cyclobutylpiperazin-1-yl)-2-oxoethyl]piperazin-1-yl}benzoyl)-2,6-dimethylmorpholine] has a Ki of under 1 µM.
O=C(CN1CCN(c2ccc(C(=O)N3CCOCC3)cc2)CC1)N1CCN(C2CCC2)CC1 [Compound 1093, 4-(4-{4-[2-(4-cyclobutylpiperazin-1-yl)-2-oxoethyl]piperazin-1-yl}benzoyl)morpholine] was tested, and the Ki was under 1 µM.
With O=C(CN1CCN(c2ccc(C(=O)N3CCSCC3)cc2)CC1)N1CCN(C2CCC2)CC1 [Compound 1094, 4-(4-{4-[2-(4-cyclobutylpiperazin-1-yl)-2-oxoethyl]piperazin-1-yl}benzoyl) thiomorpholine] the Ki was under 1 µM.
CC1CN(C(=O)c2ccc(N3CCN(CC(=O)N4CCN(C5CCC5)CC4)CC3)cc2)CC(C)O1 (stereo not shown) [Compound 1095, 4-(4-{4-[2-(4-cyclobutylpiperazin-1-yl)-2-oxoethyl]piperazin-1-yl}benzoyl)-2,6-dimethylmorpholine] showed a Ki of under 1 µM.
CC(=O)c1ccc(N2CCN(CC(=O)N3CCN(C4CCC4)CC3)C(=O)C2)cc1 [Compound 1096, 4-(4-acetylphenyl)-1-[2-(4-cyclobutylpiperazin-1-yl)-2-oxoethyl]piperazin-2-one] was tested, and the Ki was under 1 µM.
CN(C)c1ccc(-c2cnc(N3CCN(CC(=O)N4CCN(C5CCC5)CC4)CC3)cn2)cc1 [Compound 1097, 4-(5-{4-[2-(4-cyclobutylpiperazin-1-yl)-2-oxoethyl]piperazin-1-yl}pyrazin-2-yl)-N,N-dimethylaniline] was tested, and the Ki was under 1 µM.
Work on N#Cc1ccc(-c2cnc(N3CCN(CC(=O)N4CCN(C5CCC5)CC4)CC3)cn2)cc1 [Compound 1098, 4-(5-{4-[2-(4-cyclobutylpiperazin-1-yl)-2-oxoethyl]piperazin-1-yl}pyrazin-2-yl)benzonitrile] yielded a Ki of under 1 µM.
Work on CN(C)c1ccc(-c2ccc(N3CCN(CC(=O)N4CCN(C5CCC5)CC4)CC3)nn2)cc1 [Compound 1099, 4-(6-{4-[2-(4-cyclobutylpiperazin-1-yl)-2-oxoethyl]piperazin-1-yl}pyndazin-3-yl)-N,N-dimethylaniline] yielded a Ki of under 1 µM.
N#Cc1ccc(-c2ccc(N3CCN(CC(=O)N4CCN(C5CCC5)CC4)CC3)nn2)cc1 [Compound 1100, 4-(6-{4-[2-(4-cyclobutylpiperazin-1-yl)-2-oxoethyl]piperazin-1-yl}pyridazin-3-yl)benzonitrile] was tested, and the Ki was under 1 µM.
Molecule O=C(CN1CCN(c2ccc(C(=O)N3CCSCC3)cn2)CC1)N1CCN(C2CCC2)CC1 [Compound 1101] has a Ki of under 1 µM.
C=CCN1CCN(C(=O)CN2CCN(c3ccc(OC)cc3)C(C)C2)CC1 (stereo not shown) [Compound 1102, 4-[2-(4-allylpiperazin-1-yl)-2-oxoethyl]-1-(4-methoxyphenyl)-2-methylpiperazine] showed a Ki of under 1 µM.
